Assay results taken from patent US20140031283A1, “ANTICANCER FUSION PROTEIN” (ADAMED SP. Z O.O., priority 2011, published 2014).
Values joined by “and” are separate entries in the source; they are usually repeats but may differ in a detail not shown here. Identical values can stand only once. Like-named read-outs stand apart in the source and are kept apart here.

What was measured:
[1] = system: A549; test: MTT cytotoxicity test, A549 (human lung cancer); assay type: cell-based
Source text: MTT assay is a colorimetric assay used to measure proliferation, viability and cytotoxicity of cells. It consists in decomposition of a yellow tetrazolium salt MTT (4,5-dimethyl-2-thiazolyl)-2,5-diphenyltetrazolium bromide) to the water-insoluble purple dye formazan by mitochondrial enzyme succinate-tetrazolium reductase 1. MTT reduction occurs only in living cells. Data analysis consists in determining IC50 concentration of the protein (in ng/ml), at which the 50% reduction in the number of cells occurs in the population treated compared to control cells. Results were analyzed using GraphPad Prism 5.0 software. The test was performed according to the literature descriptions (Cells, J E, (1998). Cell Biology, a Laboratory Handbook, second edition, Academic Press, San Diego; Yang, Y., Koh, L W, Tsai, J H., (2004); Involvement of viral and chemical factors with oral cancer in Taiwan, Jpn J Clin Oncol, 34 (4), 176-183). Cell culture medium was diluted to a defined density (10^4-10^5 cells per 100 μl). Then 100 μl of appropriately diluted cell suspension was applied to a 96-well plate in triplicates. Thus prepared cells were incubated for 24 h at 37° C. in 5% or 10% CO2, depending on the medium used, and then to the cells (in 100 μl of medium) further 100 μl of the medium containing various concentrations of tested proteins were added. In the case of combination hTRAIL114-281 and p21WAF effector protein, 100 μl of the medium containing mixture of hTRAIL114-281 and p21WAF effector protein in molar ratio 1:1 was added. After incubation of the cells with tested proteins over the period of next 72 hours, which is equivalent to 3-4 times of cell division, the medium with the test protein was added with […] of MTT working solution [5 mg/ml], and incubation was continued for 3 h at 37° C. in 5% CO2. Then the medium with MTT solution was removed, and formazan crystals were dissolved by adding 100 μl of DMSO. After stirring, the absorbance was measured at 570 nm (reference filter 690 nm). […]

[2] = system: NCI-H460
Method: Data analysis consists in determining IC50 concentration of the protein (in ng/ml), at which the 50% reduction in the number of cells occurs in the population treated compared to control cells. Results were analyzed using GraphPad Prism 5.0 software. […] Cell culture medium was diluted to a defined density (10^4-10^5 cells per 100 μl). Then 100 μl of appropriately diluted cell suspension was applied to a 96-well plate in triplicates. Thus prepared cells were incubated for 24 h at 37° C. in 5% or 10% CO2, depending on the medium used, and then to the cells (in 100 μl of medium) further 100 μl of the medium containing various concentrations of tested proteins were added. […] After incubation of the cells with tested proteins over the period of next 72 hours, which is equivalent to 3-4 times of cell division, the medium with the test protein was added with 20 ml of MTT working solution [5 mg/ml], and incubation was continued for 3 h at 37° C. in 5% CO2. Then the medium with MTT solution was removed, and formazan crystals were dissolved by adding 100 μl of DMSO. After stirring, the absorbance was measured at 570 nm (reference filter 690 nm).

[3] = system: HCT-116
[4] = system: Colo 205; test: MTT cytotoxicity test, Colo 205 (human colorectal cancer); assay type: cell-based
Source text: (§1) MTT assay is a colorimetric assay used to measure proliferation, viability and cytotoxicity of cells. It consists in decomposition of a yellow tetrazolium salt MTT (4,5-dimethyl-2-thiazolyl)-2,5-diphenyltetrazolium bromide) to the water-insoluble purple dye formazan by mitochondrial enzyme succinate-tetrazolium reductase 1. MTT reduction occurs only in living cells. Data analysis consists in determining IC50 concentration of the protein (in ng/ml), at which the 50% reduction in the number of cells occurs in the population treated compared to control cells. Results were analyzed using GraphPad Prism 5.0 software. The test was performed according to the literature descriptions (Cells, J E, (1998). Cell Biology, a Laboratory Handbook, second edition, Academic Press, San Diego; Yang, Y., Koh, L W, Tsai, J H., (2004); Involvement of viral and chemical factors with oral cancer in Taiwan, Jpn J Clin Oncol, 34 (4), 176-183). Cell culture medium was diluted to a defined density (10^4-10^5 cells per 100 μl). Then 100 μl of appropriately diluted cell suspension was applied to a 96-well plate in triplicates. […] After stirring, the absorbance was measured at 570 nm (reference filter 690 nm). […]

[5] = system: HT-29; test: MTT cytotoxicity test, HT-29 (human colorectal cancer); assay type: cell-based; settings: continuous incubation over 72 h, test MTT
Source text: as §1

[6] = system: DU-145; test: MTT cytotoxicity test, DU-145 (human prostate cancer); assay type: cell-based; settings: continuous incubation over 72 h
Source text: as §1

[7] = system: MCF-7; test: MTT cytotoxicity test, MCF-7 (human breast cancer); assay type: cell-based; settings: continuous incubation over 72 h
Source text: as §1

[8] = system: MDA-MB-231; test: MTT cytotoxicity test, MDA-MB-231 (human breast cancer); assay type: cell-based; settings: continuous incubation over 72 h, test MTT
Source text: as §1

[9] = system: MDA-MB-435s; test: MTT cytotoxicity test, MDA-MB-435s (human breast cancer); assay type: cell-based; settings: continuous incubation over 72 h
Source text: as §1

[10] = system: UM-UC-3; test: MTT cytotoxicity test, UM-UC-3 (human bladder cancer); assay type: cell-based
Source text: as §1

[11] = system: SW780; test: MTT cytotoxicity test, SW780 (human bladder cancer); assay type: cell-based
Source text: as §1

[12] = system: SW620; test: MTT cytotoxicity test, SW620 (human colorectal cancer); assay type: cell-based; settings: continuous incubation over 72 h, test MTT
Source text: as §1

[13] = system: BxPC-3; test: MTT cytotoxicity test, BxPC-3 (human pancreatic cancer); assay type: cell-based
Source text: as §1

[14] = system: SK-OV-3; test: MTT cytotoxicity test, SK-OV-3 (human ovarian cancer); assay type: cell-based; settings: continuous incubation over 72 h
Source text: as §1

[15] = system: NIH: OVCAR-3; test: MTT cytotoxicity test, NIH: OVCAR-3 (human ovarian cancer); assay type: cell-based
Source text: as §1

[16] = system: HepG2; test: MTT cytotoxicity test, HepG2 (human liver hepatoma); assay type: cell-based; settings: continuous incubation over 72 h, test MTT
Source text: as §1

[17] = system: ACHN; test: MTT cytotoxicity test, ACHN (human kidney cancer); assay type: cell-based; settings: continuous incubation over 72 h
Source text: as §1

[18] = system: CAKI 1; test: MTT cytotoxicity test, CAKI 1 (human kidney cancer); assay type: cell-based; settings: continuous incubation over 72 h
Source text: as §1

[19] = system: CAKI 2; test: MTT cytotoxicity test, CAKI 2 (human kidney cancer); assay type: cell-based; settings: continuous incubation over 72 h
Source text: as §1

[20] = system: HT144; test: MTT cytotoxicity test, HT144 (human melanoma cells); assay type: cell-based
Source text: as §1

[21] = system: MES-SA/Dx5; test: MTT cytotoxicity test, MES-SA/Dx5 (multidrug-resistant human uterine sarcoma); assay type: cell-based; settings: Table 4, mean/SD part
Source text: as §1

[22] = system: SK-MES-1; test: MTT cytotoxicity test, SK-MES-1 (human lung cancer); assay type: cell-based; settings: Table 4, mean/SD part
Source text: as §1

[23] = system: Panc-1; test: MTT cytotoxicity test, Panc-1 (human pancreatic cancer); assay type: cell-based; settings: continuous incubation over 72 h, test MTT
Source text: as §1

[24] = system: Panc03.27; test: MTT cytotoxicity test, Panc03.27 (human pancreatic cancer); assay type: cell-based; settings: continuous incubation over 72 h
Source text: as §1

[25] = system: PLC/PRF/5; test: MTT cytotoxicity test, PLC/PRF/5 (human liver hepatoma); assay type: cell-based; settings: continuous incubation over 72 h, test MTT
Source text: as §1

[26] = system: LNCaP; test: MTT cytotoxicity test, LNCaP (human prostate cancer); assay type: cell-based; settings: Table 4, mean/SD part
Source text: as §1

[27] = system: SK-Hep-1; test: MTT cytotoxicity test, SK-Hep-1 (human liver hepatoma); assay type: cell-based; settings: continuous incubation over 72 h
Source text: as §1

[28] = system: A498; test: MTT cytotoxicity test, A498 (human kidney cancer); assay type: cell-based; settings: continuous incubation over 72 h
Source text: as §1

[29] = system: HT1080; test: MTT cytotoxicity test, HT1080 (human fibrosarcoma); assay type: cell-based; settings: continuous incubation over 72 h
Source text: as §1

[30] = system: Jurkat A3; test: EZ4U cytotoxicity test, Jurkat A3 (human leukaemia); assay type: cell-based; settings: continuous incubation over 72 h; heading prints test MTT
Method: EZ4U (Biomedica) test was used for testing cytotoxic activity of the proteins in nonadherent cell lines. The test is a modification of the MTT method, wherein formazan formed in the reduction of tetrazolium salt is water-soluble. Cell viability study was carried out after continuous 72-hour incubation of the cells with protein (seven concentrations of protein, each in triplicates). On this basis IC5O values were determined (as an average of two independent experiments) using the GraphPad Prism 5 software. Control cells were incubated with the solvent only.
The results of in vitro cytotoxicity tests are summarized as IC50 values (ng/ml), which corresponds to the protein concentration at which the cytotoxic effect of fusion proteins is observed at the level of 50% with respect to control cells treated only with solvent. Each experiment represents the average value of at least two independent experiments performed in triplicates. As a criterion of lack of activity of protein preparations the IC50 limit of 2000 ng/ml was adopted.

[31] = continuous incubation over 72 h, test MTT

Compound: CC[C@H](C)[C@H](NC(=O)[C@H](CC(C)C)NC(=O)[C@H](CCCNC(=N)N)NC(=O)[C@H](CCCNC(=N)N)NC(=O)[C@H](CCCCN)NC(=O)[C@H](CO)NC(=O)[C@H](Cc1c[nH]cn1)NC(=O)[C@H](Cc1ccc(O)cc1)NC(=O)[C@H](Cc1ccccc1)NC(=O)[C@H](CC(=O)O)NC(=O)[C@@H](NC(=O)[C@H](C)NC(=O)[C@H](CO)NC(=O)[C@@H](NC(=O)[C@H](CCC(N)=O)NC(=O)[C@H](CCCNC(=N)N)NC(=O)[C@H](CCCNC(=N)N)NC(=O)[C@@H](N)CCCCN)[C@@H](C)O)[C@@H](C)O)C(=O)N[C@@H](Cc1ccccc1)C(=O)N[C@@H](CO)C(=O)O [peptide derived from p21WAF]
- A549 IC50 ([1]; 72 h): >1000 µg/mL
- NCI-H460 IC50 ([2]; 72 h): >1000 µg/mL
- HCT116 IC50 ([3]; 72 h): >1000 µg/mL

Compound: TRAIL 95-281
- COLO205 IC50 [4, 31]: 59.02 ng/mL
- HT29 IC50 [5]: >2000 ng/mL
- DU145 IC50 [6]: >2000 ng/mL
- MCF 7 IC50 [7]: >2000 ng/mL
- MDA-MB-231 IC50 [8]: >2000 ng/mL
- MDA-MB-435s IC50 [9]: >2000 ng/mL
- UM-UC-3 IC50 [10, 31]: >2000 ng/mL
- SW780 IC50 [11, 31]: 120 ng/mL
- SW620 IC50 [12]: >2000 ng/mL
- BxPC3 IC50 [13, 31]: 60.61 ng/mL
- SK-OV-3 IC50 [14]: >2000 ng/mL
- OV-CAR-3 IC50 [15, 31]: 963 ng/mL
- HepG2 IC50 [16]: >2000 ng/mL
- ACHN IC50 [17]: >2000 ng/mL
- CAKI 1 IC50 [18]: 395.3 ng/mL
- CAKI 2 IC50 [19]: >2000 ng/mL
- HT144 IC50 [20, 31]: 34.1 ng/mL
- A549 IC50 [1, 31]: >2 µg/mL
- HCT116 IC50 [3, 31]: >2 µg/mL

Compound: rhTRAIL 95-281
- COLO 205 mean (IC50) ([4]; Table 4, mean/SD part): 24.90 ng/mL
- UM-UC-3 mean (IC50) ([10]; Table 4, mean/SD part): 2242 ng/mL and 2241 ng/mL
- SW780 mean (IC50) ([11]; Table 4, mean/SD part): 120.00 ng/mL and 120 ng/mL
- BxPC3 mean (IC50) ([13]; Table 4, mean/SD part): 64.710 ng/mL
- OVCAR-3 mean (IC50) ([15]; Table 4, mean/SD part): 963 ng/mL
- HT 144 mean (IC50) ([20]; Table 4, mean/SD part): 1733.5 ng/mL
- MES-SA/Dx5 mean (IC50) [21]: 29.15 ng/mL
- SK-MES-1 mean (IC50) [22]: 33.60 ng/mL
- Panc-1 IC50 [23]: >2000 ng/mL
- Panc03.27 IC50 [24]: 315 ng/mL
- PLC/PRF/5 IC50 [25]: >2000 ng/mL
- LNCaP mean (IC50) [26]: 2051.50 ng/mL
- SK Hep-1 IC50 [27]: >2000 ng/mL
- A498 IC50 [28]: 1611 ng/mL
- HT1080 IC50 [29]: >2000 ng/mL
- JURKAT A3 IC50 [30]: >2000 ng/mL
- NCI-H460 mean (IC50) ([2]; Table 4, mean/SD part): 5888.5 ng/mL and 5888 ng/mL and 5888.50 ng/mL
- NCI-H460 IC50 [2, 31]: 0.4382 µg/mL
- HCT116 mean (IC50) ([3]; Table 4, mean/SD part): 7558 ng/mL
